Assay results taken from PMC12669672, “Structural insights into selective and dual antagonism of EP2 and EP4 prostaglandin receptors” (The EMBO Journal, 2025).
Several values for one entry are separate records, joined by “and”; a condition that tells them apart may be missing. Identical values can stand only once. Like-named read-outs stand apart in the source and are kept apart here. Values belong to the compound of their own block, whether it stands above or below them.

Legend:
[1] = target: EP4; parameters: method as in Ganesh et al, 2013; conditions: antagonism towards EP4; ref Ganesh et al, 2013; cited from earlier work
[2] = target: T1, EP4 I317A (Homo sapiens, UniProt P35408, I317A); assay: GloSensor cAMP assay, antagonism of PGE2-induced cAMP; format: cell-based; conditions: for cAMP activity (∆pIC50 from EP4 WT): TG6-129, I317A
T1 construct: The full-length EP2 or EP4 was cloned into the pcDNA3.1 vector; FLAG (N); expressed in transfected cells; host or cells: AD293 cells

[3] = target: T2, EP2 E23A (Homo sapiens, UniProt P43116, E23A); assay: as above; format: cell-based
T2 construct: The full-length EP2 or EP4 was cloned into the pcDNA3.1 vector; FLAG (N); expressed in transfected cells; host or cells: AD293 cells
Outline: (§1)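 Read-out is GloSensor luminescence from AD293 cells co-expressing FLAG-tagged EP2 variant and GloSensor22F biosensor, transfected at a 1:1 plasmid ratio. Cells were plated at 4000 per well in CO2-independent medium containing 2% cAMP reagent, incubated 1 h at 37 °C, then read.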

[4] = target: T3, EP2 S28A (Homo sapiens, UniProt P43116, S28A); assay: as above; format: cell-based; conditions: for cAMP activity (∆pIC50 from EP2 WT): TG6-129, S28A
T3 construct: The full-length EP2 or EP4 was cloned into the pcDNA3.1 vector; FLAG (N); expressed in transfected cells; host or cells: AD293 cells
Outline: as §1

[5] = target: T4, constitutively active EP4 I317A (Homo sapiens, UniProt P35408, I317A); assay: GloSensor cAMP assay, inhibition of constitutive activity; format: cell-based
T4 construct: The full-length EP2 or EP4 was cloned into the pcDNA3.1 vector (Invitrogen), incorporating an N-terminal FLAG tag; expressed in transfected cells; host or cells: AD293

[6] = target: T5, constitutively active EP2 S28A (Homo sapiens, UniProt P43116, S28A); assay: as above; format: cell-based
T5 construct: The full-length EP2 or EP4 was cloned into the pcDNA3.1 vector; FLAG (N); expressed in transfected cells; host or cells: AD293 cells
Outline: as §1

[7] = target: T6, constitutively active EP2 E23A (Homo sapiens, UniProt P43116, E23A); assay: as above; format: cell-based
T6 construct: The full-length EP2 or EP4 was cloned into the pcDNA3.1 vector; FLAG (N); expressed in transfected cells; host or cells: AD293 cells
Outline: as §1

[8] = target: EP2; parameters: method as in Ganesh et al, 2013; conditions: antagonism towards EP2; ref Ganesh et al, 2013; cited from earlier work
[9] = system: EP2; parameters: method as in af Forselles et al, 2011; conditions: against PGE2-induced cAMP signaling in GloSensor cAMP assay; ref af Forselles et al, 2011; cited from earlier work
[10] = 1 h, TG6-129 log([M]) -12, read-out: % cAMP activity (normalized to WT)
[11] = no PGE2, pIC50 mutant - pIC50 WT, mean

T4 sequence (P35408 whole entry I317A): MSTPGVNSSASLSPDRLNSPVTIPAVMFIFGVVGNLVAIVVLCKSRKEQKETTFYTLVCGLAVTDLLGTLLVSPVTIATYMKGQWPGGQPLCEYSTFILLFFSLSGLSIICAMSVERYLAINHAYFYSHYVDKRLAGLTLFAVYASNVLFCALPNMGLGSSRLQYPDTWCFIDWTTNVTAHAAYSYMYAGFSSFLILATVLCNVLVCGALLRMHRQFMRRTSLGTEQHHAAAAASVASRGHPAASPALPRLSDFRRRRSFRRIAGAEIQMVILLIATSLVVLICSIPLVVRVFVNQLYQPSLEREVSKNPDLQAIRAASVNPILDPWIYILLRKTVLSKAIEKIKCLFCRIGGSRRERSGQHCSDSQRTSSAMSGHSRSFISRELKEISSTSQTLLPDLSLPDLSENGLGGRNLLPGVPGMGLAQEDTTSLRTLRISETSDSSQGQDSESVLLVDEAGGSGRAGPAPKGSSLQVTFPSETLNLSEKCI
T1 sequence (P35408 whole entry I317A): as above
T2 sequence (P43116 whole entry E23A): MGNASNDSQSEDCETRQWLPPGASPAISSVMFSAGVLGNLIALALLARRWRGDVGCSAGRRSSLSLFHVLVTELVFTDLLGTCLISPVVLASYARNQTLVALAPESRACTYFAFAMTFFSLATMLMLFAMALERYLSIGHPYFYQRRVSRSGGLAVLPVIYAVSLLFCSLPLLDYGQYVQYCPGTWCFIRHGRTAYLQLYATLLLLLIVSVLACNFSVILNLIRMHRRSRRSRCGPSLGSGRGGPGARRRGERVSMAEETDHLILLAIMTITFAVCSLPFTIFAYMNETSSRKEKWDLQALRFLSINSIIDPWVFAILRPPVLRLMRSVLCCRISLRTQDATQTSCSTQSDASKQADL
T6 sequence (P43116 whole entry E23A): as above
T3 sequence (P43116 whole entry S28A): as the sequence (P43116 whole entry E23A) above, with A23E, S28A counted along it
T5 sequence (P43116 whole entry S28A): as the sequence (P43116 whole entry E23A) above, with A23E, S28A counted along it

IC50 [2]: 10.7 µM | remaining activity at 100 µM ([2]; 1 h, TG6-129 log([M]) -4.00, read-out: % cAMP activity (normalized to WT)): 16.3% | remaining activity at […] ([2]; 1 h, TG6-129 log([M]) -4.70, read-out: % cAMP activity (normalized to WT)): 19.5% | remaining activity at […] ([2]; 1 h, TG6-129 log([M]) -5.40, read-out: % cAMP activity (normalized to WT)): 47.7% | remaining activity at […] ([2]; 1 h, TG6-129 log([M]) -6.10, read-out: % cAMP activity (normalized to WT)): 54.4% | remaining activity at 0.1585 µM ([2]; 1 h, TG6-129 log([M]) -6.80, read-out: % cAMP activity (normalized to WT)): 59.7% | remaining activity at 0.03236 µM ([2]; 1 h, TG6-129 log([M]) -7.49, read-out: % cAMP activity (normalized to WT)): 57.3% | remaining activity at 0.006457 µM ([2]; 1 h, TG6-129 log([M]) -8.19, read-out: % cAMP activity (normalized to WT)): 60.6% | remaining activity at 0.001288 µM ([2]; 1 h, TG6-129 log([M]) -8.89, read-out: % cAMP activity (normalized to WT)): 53.5% | cAMP activity (∆pIC50 from EP4 WT) ([2]; Mean): 0.074 | cAMP activity (∆pIC50 from EP4 WT) ([2]; single experiments 1st-3rd): 0.047 and -0.037 and 0.211 | IC50 [3]: 0.0204 µM | remaining activity at 1 pM [3, 10]: 74.1% | cAMP activity (∆pIC50 from EP2 WT) ([3]; TG6-129, E23A, Mean): 0.563 | IC50 [4]: 0.0363 µM | remaining activity at 10 pM ([4]; 1 h, TG6-129 log([M]) -11, read-out: % cAMP activity (normalized to WT)): 109% | remaining activity at 1 pM [4, 10]: 106% | cAMP activity (∆pIC50 from EP2 WT) ([4]; Mean): 0.282 | cAMP activity (∆pIC50 from EP2 WT) ([4]; single experiments 1st-3rd): 0.159 and 0.319 and 0.367 | IC50 [5]: 3.55 µM | remaining activity at 100 µM ([5]; 1 h, TG6-129 log([M]) -4.00, EP4-I317A, read-out: % cAMP activity (normalized to WT)): 6.11% | remaining activity at […] ([5]; 1 h, TG6-129 log([M]) -4.70, EP4-I317A, read-out: % cAMP activity (normalized to WT)): 11.7% | remaining activity at […] ([5]; 1 h, TG6-129 log([M]) -5.40, EP4-I317A, read-out: % cAMP activity (normalized to WT)): 33.6% | remaining activity at […] ([5]; 1 h, TG6-129 log([M]) -6.10, EP4-I317A, read-out: % cAMP activity (normalized to WT)): 68.9% | remaining activity at 0.1585 µM ([5]; 1 h, TG6-129 log([M]) -6.80, EP4-I317A, read-out: % cAMP activity (normalized to WT)): 80.8% | remaining activity at 0.03236 µM ([5]; 1 h, TG6-129 log([M]) -7.49, EP4-I317A, read-out: % cAMP activity (normalized to WT)): 80.3% | remaining activity at 0.006457 µM ([5]; 1 h, TG6-129 log([M]) -8.19, EP4-I317A, read-out: % cAMP activity (normalized to WT)): 83% | remaining activity at 0.001288 µM ([5]; 1 h, TG6-129 log([M]) -8.89, EP4-I317A, read-out: % cAMP activity (normalized to WT)): 79.7% | TG6-129 cAMP activity (∆pIC50 from EP4 WT), Mean ([5]; I317A, Mean): 0.256 | ΔpIC50 [5, 11]: 0.26 ± 0.11 | IC50 [6]: 0.0389 µM | remaining activity at 10 µM ([6]; 1 h, TG6-129 log([M]) -5, EP2-S28A, read-out: % cAMP activity (normalized to WT)): 8.3% | remaining activity at 1 µM ([6]; 1 h, TG6-129 log([M]) -6, EP2-S28A, read-out: % cAMP activity (normalized to WT)): 8.69% | remaining activity at 0.001 µM ([6]; 1 h, TG6-129 log([M]) -9, EP2-S28A, read-out: % cAMP activity (normalized to WT)): 255% | TG6-129 cAMP activity (∆pIC50 from EP2 WT), Mean ([6]; S28A, Mean): 0.422 | TG6-129 cAMP activity (∆pIC50 from EP2 WT) ([6]; S28A, single experiments 1st-3rd): 0.401 and 0.405 and 0.460 | ΔpIC50 [6, 11]: 0.42 ± 0.02 | IC50 [7]: 0.0316 µM | remaining activity at 10 µM ([7]; 1 h, TG6-129 log([M]) -5, EP2-E23A, read-out: % cAMP activity (normalized to WT)): 5.62% | remaining activity at 1 µM ([7]; 1 h, TG6-129 log([M]) -6, EP2-E23A, read-out: % cAMP activity (normalized to WT)): 4.15% | remaining activity at 0.1 µM ([7]; 1 h, TG6-129 log([M]) -7, EP2-E23A, read-out: % cAMP activity (normalized to WT)): 17.9% | remaining activity at 0.001 µM ([7]; 1 h, TG6-129 log([M]) -9, EP2-E23A, read-out: % cAMP activity (normalized to WT)): 93.8% | remaining activity at 0.0001 µM ([7]; 1 h, TG6-129 log([M]) -10, EP2-E23A, read-out: % cAMP activity (normalized to WT)): 108% | remaining activity at 10 pM ([7]; 1 h, TG6-129 log([M]) -11, EP2-E23A, read-out: % cAMP activity (normalized to WT)): 111% | remaining activity at 1 pM ([7]; 1 h, TG6-129 log([M]) -12, EP2-E23A, read-out: % cAMP activity (normalized to WT)): 98% | TG6-129 cAMP activity (∆pIC50 from EP2 WT), Mean ([7]; E23A, Mean): 0.363 | TG6-129 cAMP activity (∆pIC50 from EP2 WT) ([7]; E23A, single experiments 1st-3rd): 0.381 and 0.341 and 0.367 | ΔpIC50 [7, 11]: 0.36 ± 0.01
SMILES: CCc1nnc(NS(=O)(=O)c2ccc(NC(=S)NC(=O)/C=C/c3ccc(F)cc3)cc2)s1 [TG6-129]
Kd [1]: 3.9 µM | Kd [8]: 0.0088 µM

SMILES: COc1ccc2cc(OCC3(C(=O)O)CN(C(=O)c4ccc(F)cc4)C3)ccc2c1 [PF-04418948]
Kb [9]: 0.0018 µM
